In data set [1] the target is ^3 H-GABA binding to rat brain membranes. The data set can be described thus: ^3 H-GABA binding to rat brain membranes. Conditions: 10 nM ^3 H-GABA, on ice 5 min.
Protocol: 0.32 M sucrose (made fresh every day)
0.05 N Tris-citrate buffer (pH ~6.8)
^3 H-GABA=aminobutyric acid, γ-2,3-^3 H(N) approx.
35 Ci/mmol, from New England Nuclear
(diluted daily to 1 μM in water)
A. Preparation of membranes
Rats are killed by a blow to their head, exsanguinated and their brains removed and cooled in icecold saline. After rinsing and weighing two brains are pooled and homogenized in 40 ml of icecold 0.32 M sucrose using a motor-driven homogenizer with teflon pestle (6 strokes up and down, slow speed rotation).
The samples are centrifuged for 10 min. at 900 g, and thereafter the supernatants are centrifuged for 20 min. at 17,000 g (4° C.). […]
Incubation tubes in duplicate receive on ice 780 μl of water, 200 μl of drug dissolved in water, 20 μl of 1 μM ^3 H-GABA (final concentration of ^3 H-GABA in tubes=10 nM) and 1000 μl of the membrane suspension. […] Ten ml of Instagel or Lumagel containing 10 ml of acetic acid per 1 are added, and the radioactivity are determined by liquid scintillation counting. The unspecific binding of ^3 H-GABA is determined by incubating the samples with 1 mM of GABA. […]
The means of controls and 1 mM GABA samples are calculated. […] The IC50-values are determined as the concentrations, at which the binding is 50 percent of the total binding minus the unspecific binding.
The next data set has as its system mouse pain threshold. The data set can be described thus: Mouse grid shock (analgesic effect, pain threshold). It counts as in vivo. Conditions: male mice, + not defined. Here is the method:
The mouse grid consists of a perspex cage with wire grid bottom and a perspex lid, on which is placed a microphone sensitive to the frequency of a mouse-squeak. A stimulator with motordriven potentiometer applies a sequence of square wave impulses of continuously increasing milliamperage to the grid. Frequency of impulses 20 cycles/sec., duration 5 msec. Milliamperage is recorded on a digital amperemeter connected to the stimulator. Activation of the microphone by a mouse-squeak cuts off the current and the final milliamperage appear on the meter.
Five mice are used for each dose level. Each mouse serves as its own control.
Prior to the administration of test substance the animals are placed on the grid one at a time and the pain threshold is determined by increasing the current intensity until the mouse squeaks. The pain threshold may be read on the milliamperemeter.
Fifteen minutes and 30 minutes after administration of test substance the mice are tested again and the pain thresholds recorded.
Analgesic effect is present when the pain threshold is increased over the pre-dosing value (control value). The results are stated as % increase in pain threshold calculated on the basis of the control value. The registration can also be done as an on-line procedure. […]

Data set [2] relates to isoniazide-induced seizures in mice. The data set can be described thus: Isoniazide antagonism (isoniazide 300 mg/kg s.c. induced convulsions). Conditions: i.p. test compound, table does not say whether MED or ED50. Set-up: unit: mg/kg. It counts as in vivo, mouse. The method, then: Isoniazide 300 mg/kg s.c.
Five mice are used for each dose level.
Immediately after administration of test substance, isoniazide 300 mg/kg is injected s.c. This dose of isoniazide induces intermittent tonic clonic seizures within 60 minutes.
The calculations are performed as an "on line procedure" on the EDP-terminal. […] ED50 is determined as the dose in mg/kg which increases the time 50%.

The conditions of data set [3]: THIP, prior art; cited from earlier work.
For data set [4] the following is noted: THIP, European Patent Application No. 78 100 191.2; cited from earlier work.

Bounds are passed on as bounds.

Turning to `CC(=O)n1oc2c(c1=O)CCNC2` [Example 3, 2-Acetyl-4,5,6,7-tetrahydroisoxazolo[5,4-c]-pyridine-3-one], in data set [1], the IC50 was more than 100 µM. For the same compound, the Mouse grid shock result in the data set on mouse pain threshold is listed as “no effect”. Besides, the Isoniazide antagonism entry in data set [2] is “weak effect”.

Consider `NC(=O)n1oc2c(c1=O)CCNC2` [Example 5, 2-Carbamoyl-4,5,6,7-tetrahydroisoxazolo[5,4-c]-pyridine-3-one], for which the Isoniazide antagonism in data set [2] is 5.8.

Turning to `CNC(=O)n1oc2c(c1=O)CCNC2` [Example 6, 2-(N-methylcarbamoyl)-4,5,6,7-tetrahydroisoxazolo[5,4-c]pyridine-3-one], the Isoniazide antagonism in data set [2] turned out to be 1.3.

In data set [2], `O=C(NC1CCCCC1)n1oc2c(c1=O)CCNC2` [Example 7, 2-(N-cyclohexylcarbamoyl)-4,5,6,7-tetrahydroisoxazolo[5,4-c]pyridine-3-one] registered an Isoniazide antagonism of 2.1.

With `Oc1noc2c1CCNC2` [THIP, 4,5,6,7-tetrahydroisoxazolo[5,4-c]pyridine-3-ol], in data set [3], the duration of action result was “relatively shortacting” and the side effects result is recorded as “some side effects”. The GABA-related activity result in data set [4] is listed as “having GABA-related activity”. The compound also displayed an Isoniazide antagonism in data set [2] of 1.3.

One may read the IC50 as the midpoint of a concentration-inhibition curve.
